Values of other authors in patent US20220031840A1, “Method of Treatment” (HaemaLogix Pty Ltd, priority 2018, published 2022).

System: CXCL10
Details: elotuzumab phase I study; cited from earlier work

In the case of “elotuzumab: antibody named as additional anti-cancer agent; phase I study cited (Zonder et al. 2012)”, the “Drug-induced change in CXCL10 levels” value is listed as “drug-induced increases”.
